This passage reports MIC results from ChEMBL document CHEMBL1143511, “Antitubercular agents. Part 1: synthesis of phthalimido- and naphthalimido-linked phenazines as new prototype antitubercular agents” (2005).

For orientation: MIC means the lowest concentration found to suppress growth. A lower MIC goes with inhibition by little substance.

≈ marks a conversion by molar mass, not a printed value. Where only a bound is given, the exact number is not on record here.

Common to all, as to type: functional
Assay [1] relates to Mycobacterium tuberculosis. As to the kind of experiment: Minimum inhibitory concentration tested against Mycobacterium tuberculosis sensitive clinical isolates; Range:1-2 ug/ml.
Assay [2] deals with Mycobacterium avium. Nature of the assay: Minimum inhibitory concentration tested against Mycobacterium avium ATCC 49601.
In assay [3] the test system is Mycobacterium tuberculosis. Nature of the assay: Minimum inhibitory concentration tested against Mycobacterium tuberculosis H37Rv ATCC 27294.
In assay [4] the test system is Mycobacterium intracellulare. As to the kind of experiment: Minimum inhibitory concentration tested against Mycobacterium intracellular ATCC 13950.
Assay [5] concerns Mycobacterium tuberculosis. As to the kind of experiment: Minimum inhibitory concentration tested against Mycobacterium tuberculosis sensitive clinical isolates.
Assay [6] relates to Mycobacterium tuberculosis. As to the kind of experiment: Minimum inhibitory concentration tested against Mycobacterium tuberculosis sensitive clinical isolates; Range 8-16 ug/mL.
In assay [7] the test system is Mycobacterium tuberculosis. Nature of the assay: Minimum inhibitory concentration tested against Mycobacterium tuberculosis sensitive clinical isolates; Range:1-4 ug/ml.
The subject of assay [8] is Mycobacterium tuberculosis. As to the kind of experiment: Minimum inhibitory concentration tested against Mycobacterium tuberculosis sensitive clinical isolates; Range 0.125-0.25 ug/ml.

Regarding `O=C1c2ccccc2C(=O)N1CCCCCCN1CCN(CC/N=c2/cc3n(-c4ccc(Cl)cc4)c4ccccc4nc-3cc2Nc2ccc(Cl)cc2)CC1`, the MIC was 2 µg/mL (≈ 2.59 µM) in assay [1], 16 µg/mL (≈ 20.7 µM) in assay [2], 1 µg/mL (≈ 1.29 µM) in assay [3] and 8 µg/mL (≈ 10.4 µM) in assay [4].

On to `O=C1c2cccc3cccc(c23)C(=O)N1CCCN1CCN(CC/N=c2/cc3n(-c4ccc(Cl)cc4)c4ccccc4nc-3cc2Nc2ccc(Cl)cc2)CC1`, for which the minimum inhibitory concentration (MIC) in assay [2], in assay [3], in assay [5] and in assay [4] was greater than 16 µg/mL each time.

`O=C1c2ccccc2C(=O)N1CCCCN1CCN(CC/N=c2/cc3n(-c4ccc(Cl)cc4)c4ccccc4nc-3cc2Nc2ccc(Cl)cc2)CC1`: the MIC in assay [2], in assay [3], in assay [5] and in assay [4] was greater than 16 µg/mL throughout.

With `O=C1c2cccc3cccc(c23)C(=O)N1CCCCCCN1CCN(CC/N=c2/cc3n(-c4ccc(Cl)cc4)c4ccccc4nc-3cc2Nc2ccc(Cl)cc2)CC1`, the MIC was 16 µg/mL (≈ 19.4 µM) in assay [6], greater than 16 µg/mL in assay [2], 16 µg/mL (≈ 19.4 µM) in assay [3] and greater than 16 µg/mL in assay [4].

For the molecule `O=C1c2cccc3cccc(c23)C(=O)N1CCCCCN1CCN(CC/N=c2/cc3n(-c4ccc(Cl)cc4)c4ccccc4nc-3cc2Nc2ccc(Cl)cc2)CC1`, the MIC in assay [2], in assay [3], in assay [5] and in assay [4] was greater than 16 µg/mL in each case.

As for `O=C1c2cccc3cccc(c23)C(=O)N1CCCCN1CCN(CC/N=c2/cc3n(-c4ccc(Cl)cc4)c4ccccc4nc-3cc2Nc2ccc(Cl)cc2)CC1`, the MIC in assay [2], in assay [3], in assay [5] and in assay [4] was greater than 16 µg/mL in each case.

`O=C1c2ccccc2C(=O)N1CCCCCN1CCN(CC/N=c2/cc3n(-c4ccc(Cl)cc4)c4ccccc4nc-3cc2Nc2ccc(Cl)cc2)CC1`: the MIC amounted to 16 µg/mL (≈ 21.1 µM) in assay [2], 1 µg/mL (≈ 1.32 µM) in assay [3], 4 µg/mL (≈ 5.27 µM) in assay [7] and 8 µg/mL (≈ 10.5 µM) in assay [4].

Turning to `O=C1c2ccccc2C(=O)N1CCCN1CCN(CC/N=c2/cc3n(-c4ccc(Cl)cc4)c4ccccc4nc-3cc2Nc2ccc(Cl)cc2)CC1`, the MIC in assay [2], in assay [3], in assay [5] and in assay [4] was greater than 16 µg/mL throughout.

For `NNC(=O)c1ccncc1` [ISONIAZID], the minimum inhibitory concentration (MIC) in assay [2] is greater than 16 µg/mL; in assay [3], 0.25 µg/mL (≈ 1.82 µM); in assay [4], 8 µg/mL (≈ 58.3 µM); in assay [8], 0.25 µg/mL (≈ 1.82 µM).
